Reference: BindingDB's records for doi:10.1021/jm030505a (Abbott Laboratories, 2004)

Experiments:
[1] = In vitro effective concentration tested on HEK293 cells co-transfected with ferret Dopamine receptor D4 using FLIPR assay
[2] = In vitro effective concentration tested on HEK293 cells co-transfected with ferret Dopamine receptor D2 using FLIPR assay

c1ccc(N2CCN(Cc3nc4ccccc4[nH]3)CC2)nc1 [2-((4-(pyridin-2-yl)piperazin-1-yl)methyl)-1H-benzo[d]imidazole]
EC50 [1]: 0.0232 µM

NCCc1ccc(O)c(O)c1
EC50 [1]: 0.0027 µM

Fc1ccc2[nH]c(CN3CCN(c4ccccn4)CC3)cc2c1 [5-Fluoro-2-(4-pyridin-2-yl-piperazin-1-ylmethyl)-1H-indole]
EC50 [1]: 0.022 µM
EC50 [2]: 0.527 µM

CN1CCc2cccc3c2[C@H]1Cc1ccc(O)c(O)c1-3 [APOKYN]
EC50 [1]: 0.0015 µM
